Test results reported in US7718614B2 (Kurume University, priority 2003, dated 2010).
Several values for one entry are separate records, joined by “and”; a condition that tells them apart may be missing. Equal values may be shown once. Entries after “also recorded” stand apart in the source; their conditions may differ.

What was measured:
[1] = system: peptide-specific CTL precursors in PBMCs; assay: Peptide-specific CTL precursor assay (IFN-γ production of peptide-stimulated PBMCs), Example 1; type: cell-based, human; parameters: key to Cellular response to peptide during the combination therapy, 12th / Cellular response to peptide during the combination therapy, 6th / Cellular response to peptide during the combination therapy, Pre: Ar: p* ≦ 0.1 and 500 ≦ net**; A: p ≦ 0.05 and 50 ≦ net; B: p ≦ 0.05 and 25 ≦ net < 50; C: 0.05 < p < 0.1 and 50 ≦ net; AAAA: all four wells of quadruplicate assay were positive; AAA: three wells of quadruplicate assay were positive; AA: two wells of quadruplicate assay were positive; conditions: PBMCs of the individual case; for Cellular response to peptide during the combination therapy, 12th: after 12th vaccination; for Cellular response to peptide during the combination therapy, Pre: before combination therapy, grade of each positive well of quadruplicate IFN-γ assay; for Cellular response to peptide during the combination therapy, 6th: after 6th vaccination; for Cellular response to peptide during the combination therapy, 18th: after 18th vaccination;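 for all read-outs here: PBMCs cultured with each peptide at 10 µM, restimulated at 20 µM every 3 days up to 12 days, then 18 hr with peptide-pulsed target cells, IFN-γ by ELISA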
Procedure: Before the first vaccination and 7 days after every 6th vaccination, 30 ml of peripheral blood was obtained, and PBMCs were isolated by means of Ficoll-Conray density gradient centrifugation. Peptide-specific CTL precursors in PBMCs were detected using a previously reported culture method [24]. Briefly, PBMCs (1×10^5 cells/well) were incubated with 10 μM of each peptide in U-bottom-type 96-well microculture plates (Nunc, Roskilde, Denmark) in 200 μl of culture medium. The culture medium contained 45% RPMI-1640 medium, 45% AIM-V™ medium (Invitrogen Corp., Carlsbad, Calif.), 10% FCS, 100 U/ml of interleukin-2 (IL-2) and 0.1 mM MEM nonessential amino acid solution (Invitrogen Corp.). Half of the medium was removed and replaced with the new medium containing a corresponding peptide (20 μM) every 3 days for up to 12 days. […] The target cells (C1R-A2402 or T2, 1×10^4/well) were pulsed with each peptide (10 μM) for 2 hr, and then effector cells (1×10^5/well) were added to each well with the final volume of 200 μl. After incubation for 18 hr, the supernatants (100 μl) were collected, and the amounts of IFN-γ were measured using an enzyme-linked immuno-sorbent assay (ELISA) (limit of sensitivity: 10 pg/ml). All experiments were performed in the four different wells with duplicate assays. […] Peptides were chosen based upon evaluation of all 4 wells by the order shown above.
Peptide-specific CTL precursors in PBMCs were detected using a previously reported culture method [24], while an ELISA was used to detect the serum IgG levels specific for the peptides administrated, as reported previously [13-15]. […] Namely, PBMCs were harvested every 2 weeks and were cultured (10^4 cells/well) for 2 days in triplicate assays with 10 μl M of phytohemagglutinin (PHA), 10 ng/ml of Epstein-Bar virus (EBV)-derived peptide with HLA-A24 or -A2 binding motif, and 10 ng/ml of two different peptides under vaccination. After 2 days in culture, the amounts of IFN-γ in cell free supernatants were measured in triplicate assays, and viable cell numbers were also counted. To avoid biases in each assay, all the PBMCs were once cryopreserved and the four different PBMCs (two from healthy donors, one from patients PBMCs harvested 2 weeks before the latest vaccination, and one from the latest vaccination) were thawed at the same time in the morning of the experiment. The PBMCs from healthy donors were from the same donors throughout the series of immunological monitoring. Responses (IFN-γ production) to PHA, EBV-peptide, and the vaccinated peptides were considered to be mediated by resting T cells, memory T cells, and activated T cells, respectively.

[2] = system: peptide-specific IgG; assay: ELISA of serum IgG specific for the administered peptides, Example 1; type: in vivo, human; parameters: key: −: absent; +: present, low titer; ++: present, high titer; conditions: serum of the individual case; for Anti-peptide IgG during the combination therapy, 6th: after 6th vaccination; for Anti-peptide IgG during the combination therapy, 12th: after 12th vaccination; for Anti-peptide IgG during the combination therapy, Pre: before combination therapy; for Anti-peptide IgG during the combination therapy, 18th: after 18th vaccination
[3] = system: peptide-specific IgG; assay: ELISA of serum anti-peptide IgG, Example 2; type: in vivo, human; parameters: key: −: absent; +: present, low titer; ++: present, high titer; conditions: serum of the individual patient; for Anti-peptide IgG, 6th: after 6th vaccination; for Anti-peptide IgG, Pre: pre-vaccination
Procedure: Peptide-specific CTL precursors in PBMCs were detected using a previously reported culture method, while an ELISA was used to detect the serum IgG levels specific for the peptides administrated, as reported previously. In addition, a new monitoring method was conducted to carefully measure the estramustine-induced immunosuppression. Namely, PBMCs were harvested every 2 weeks and were cultured (10^4 cells/well) for 2 days in triplicate assays with […] of phytohemagglutinin (PHA), 10 ng/ml of Epstein-Bar virus (EBV)-derived peptide with HLA-A24 or -A2 binding motif, and 10 ng/ml of two different peptides under vaccination. After 2 days in culture, the amounts of IFN-γ in cell free supernatants were measured in triplicate assays, and viable cell numbers were also counted. To avoid biases in each assay, all the PBMCs were once cryopreserved and the four different PBMCs (two from healthy donors, one from patients PBMCs harvested 2 weeks before the latest vaccination, and one from the latest vaccination) were thawed at the same time in the morning of the experiment. The PBMCs from healthy donors were from the same donors throughout the series of immunological monitoring. Responses (IFN-γ production) to PHA, EBV-peptide, and the vaccinated peptides were considered to be mediated by resting T cells, memory T cells, and activated T cells, respectively.
Except for the following points, substantially the same approach was employed as Example 1.

[4] = system: peptide-specific CTL precursors in PBMCs; assay: Peptide-specific CTL precursor assay (IFN-γ production), Example 2; type: cell-based, human; conditions: for Cellular response to peptide, 6th (mean specific IFN-γ production): post(6th)-vaccination PBMCs of the individual patient, * p ≦ 0.05, ** p ≦ 0.10 increased versus pre; for Cellular response to peptide, Pre (mean specific IFN-γ production): pre-vaccination PBMCs of the individual patient, response to HIV peptide subtracted
Procedure: Before the first vaccination and 7 days after every 6th vaccination, 30 ml of peripheral blood was obtained, and PBMCs were isolated by means of Ficoll-Conray density gradient centrifugation. Peptide-specific CTL precursors in PBMCs were detected using a previously reported culture method [24]. Briefly, PBMCs (1×10^5 cells/well) were incubated with 10 μM of each peptide in U-bottom-type 96-well microculture plates (Nunc, Roskilde, Denmark) in 200 μl of culture medium. The culture medium contained 45% RPMI-1640 medium, 45% AIM-V™ medium (Invitrogen Corp., Carlsbad, Calif.), 10% FCS, 100 U/ml of interleukin-2 (IL-2) and 0.1 mM MEM nonessential amino acid solution (Invitrogen Corp.). Half of the medium was removed and replaced with the new medium containing a corresponding peptide (20 μM) every 3 days for up to 12 days. […] The target cells (C1R-A2402 or T2, 1×10^4/well) were pulsed with each peptide (10 μM) for 2 hr, and then effector cells (1×10^5/well) were added to each well with the final volume of 200 μl. After incubation for 18 hr, the supernatants (100 μl) were collected, and the amounts of IFN-γ were measured using an enzyme-linked immuno-sorbent assay (ELISA) (limit of sensitivity: 10 pg/ml). All experiments were performed in the four different wells with duplicate assays.
All patients were vaccinated with up to 4 peptides selected from the 16 candidates by pre-vaccination measurements.

| Sequence | Cellular response to peptide during the combination therapy, 12th [1] | Cellular response to peptide during the combination therapy, Pre [1] | Anti-peptide IgG during the combination therapy, 6th [2] | Anti-peptide IgG during the combination therapy, 12th [2] | Anti-peptide IgG during the combination therapy, Pre [2] | Anti-peptide IgG, 6th [3] | Anti-peptide IgG, Pre [3] | Cellular response to peptide, 6th (mean specific IFN-γ production) [4] | Cellular response to peptide, Pre (mean specific IFN-γ production) [4] | Cellular response to peptide during the combination therapy, 6th [1] | Anti-peptide IgG during the combination therapy, 18th [2] | Cellular response to peptide during the combination therapy, 18th [1] |
| --- | --- | --- | --- | --- | --- | --- | --- | --- | --- | --- | --- | --- |
| ALVEFEDVL [HNRPL140-148] | ArArArA | AAC | ++ | + | − |  |  |  |  |  |  |  |
| ASLDSDPWV [WHSC2103-111] |  |  | − |  | − |  |  |  |  |  |  |  |
| CYASGWGSI [PSA152] |  |  |  |  |  | − (4×) and + | − (3×) and + (2×) | 34.8 pg/ml and 0 pg/ml (2×) and 18.8 pg/ml and 15.5 pg/ml | 34.5 pg/mL and 39.5 pg/mL and 250 pg/mL and 49.3 pg/mL and 168.8 pg/mL |  |  |  |
| DFMIQGGDF [CyB91-99] |  |  | − |  | − |  |  |  |  | C (0.05 < p < 0.1 and 50 ≦ net) |  |  |
| DLLSHAFFAI [ppMAPkkk432-440] |  | ArA and A (p ≦ 0.05 and 50 ≦ net) | ++ and − (2×) and + | ++ and + (2×) | + and − (3×) |  |  |  |  | C (0.05 < p < 0.1 and 50 ≦ net); also recorded: A (p ≦ 0.05 and 50 ≦ net) | + |  |
| DVWSFGILL [lck422-430] | C (0.05 < p < 0.1 and 50 ≦ net) | A (p ≦ 0.05 and 50 ≦ net); also recorded: Ar (p* ≦ 0.1 and 500 ≦ net**); also recorded: C (0.05 < p < 0.1 and 50 ≦ net) | + (2×) and − (4×) | + (2×) and − (3×) | − (5×) and + |  |  |  |  | C (0.05 < p < 0.1 and 50 ≦ net) and A (p ≦ 0.05 and AAA | − | C (0.05 < p < 0.1 and 50 ≦ net); also recorded: ArAAA |
| EYCLKFTKL [ART 1170-179] | AAA | A (p ≦ 0.05 and 50 ≦ net) | ++ | ++ | ++ |  |  |  |  | C (0.05 < p < 0.1 and 50 ≦ net); also recorded: A (p ≦ 0.05 and 50 ≦ net) | ++ | A (p ≦ 0.05 and 50 ≦ net) |
| EYRGFTQDF [SART1 690] |  |  |  |  |  | + (2×) and − | + and − (2×) | 0 pg/mL and 81.8 pg/mL and 35 pg/mL | 0 pg/mL and 250 pg/mL and 449 pg/mL |  |  |  |
| GLLFLHTRTI [ppMAPkkk294-302] | C (0.05 < p < 0.1 and 50 ≦ net) | A (p ≦ 0.05 and 50 ≦ net) | + and − (2×) and ++ | + and − and ++ | − (3×) and + |  |  |  |  | C (0.05 < p < 0.1 and 50 ≦ net) | + and − | ArArAA |
| HYRKWIKDTI [PSA248] |  |  |  |  |  | + (8×) and ++ (4×) | + (12×) and − (2×) | 100 pg/ml and 505.8 pg/ml and 303.5 pg/ml and 149.8 pg/ml and 0 pg/ml (4×) and 9.3 pg/ml and 21.3 pg/ml and 38.8 pg/ml and 243.5 pg/ml and 9.8 pg/ml | 19.5 pg/ml and 28.3 pg/ml and 12.8 pg/ml and 14.3 pg/ml and 6.5 pg/ml and 18.5 pg/ml and 0 pg/ml (2×) and 375 pg/ml and 17 pg/ml and 250 pg/ml and 18 pg/ml and 32.8 pg/ml and 23.8 pg/ml |  |  |  |
| ILGELREKV [WHSC2141-] |  |  | − | − | − |  |  |  |  |  |  |  |
| KLKHYGPGWV [CypB129-138] |  | A (p ≦ 0.05 and 50 ≦ net) | − | − and + | − |  |  |  |  | A (p ≦ 0.05 and 50 ≦ net) |  |  |
| KLVERLGAA [lck246-254] | B (p ≦ 0.05 and 25 ≦ net < 50) (2×) and ArAA | A (p ≦ 0.05 and 50 ≦ net) and ArC | ++ (4×) and − | ++ (4×) and − | ++ (3×) and − (2×) |  |  |  |  | A (p ≦ 0.05 and 50 ≦ net) | − | ArAAA |
| LIADFLSGLI [UBE2V85-93] | A (p ≦ 0.05 and 50 ≦ net) |  | − | + | − |  |  |  |  |  | + |  |
| NVLHFFNAPL [HNRPL501-510] | ArArAc; also recorded: ArArAr | A (p ≦ 0.05 and 50 ≦ net) and ArAr | ++ and − (2×) and + | ++ (2×) and − | − (3×) and + |  |  |  |  | AAA and ArArArAr | + | ArA |
| RIIYDRKFL [EIF4EBP151-59] | A (p ≦ 0.05 and 50 ≦ net) |  | − and ++ | − and ++ | − and + |  |  |  |  |  | + | B (p ≦ 0.05 and 25 ≦ net < 50) |
| RLAEYQAYI [SART 3309-317] | Ar (p* ≦ 0.1 and 500 ≦ net**) | A (p ≦ 0.05 and 50 ≦ net) | − | − | − |  |  |  |  | Ar (p* ≦ 0.1 and 500 ≦ net**) | + | ArAC |
| RLQEWCSVI [UBE2V43-51] | ArArArA; also recorded: A (p ≦ 0.05 and 50 ≦ net); also recorded: C (0.05 < p < 0.1 and 50 ≦ net) | AAA and AAAB and ArA | ++ (3×) and + | ++ | ++ and − (2×) and + |  |  |  |  | ACC and AA |  |  |
| SYTRLFLIL [SART 2899-907] |  | A (p ≦ 0.05 and 50 ≦ net) | − | − | − |  |  |  |  |  | − | A (p ≦ 0.05 and 50 ≦ net) |
| VLEGMEVV [CypB172-179] | A (p ≦ 0.05 and 50 ≦ net) | A (p ≦ 0.05 and 50 ≦ net) | + | + | − (2×) and + |  |  |  |  |  | + | B (p ≦ 0.05 and 25 ≦ net < 50); also recorded: A (p ≦ 0.05 and 50 ≦ net) |
